Reference: ChEMBL document CHEMBL1135110, “Structure-based design of peptidomimetic antagonists of p56(lck) SH2 domain” (Bioorg Med Chem Lett, 2002)
Non-standard residues stand in square brackets, D forms with d. Residues, ends and D or L forms follow the SMILES beside them. pY = N[C@@H](Cc1ccc(OP(=O)(O)O)cc1)C(=O)O

The compounds below were run against Tyrosine-protein kinase Lck (Homo sapiens, UniProt P06239) (assay: Inhibitory activity towards p56 Lck tyrosine kinase SH2 domain using scintillation proximity assay (SPA)).
Tyrosine-protein kinase Lck, sequence (P06239 whole entry, the tested form may be a part): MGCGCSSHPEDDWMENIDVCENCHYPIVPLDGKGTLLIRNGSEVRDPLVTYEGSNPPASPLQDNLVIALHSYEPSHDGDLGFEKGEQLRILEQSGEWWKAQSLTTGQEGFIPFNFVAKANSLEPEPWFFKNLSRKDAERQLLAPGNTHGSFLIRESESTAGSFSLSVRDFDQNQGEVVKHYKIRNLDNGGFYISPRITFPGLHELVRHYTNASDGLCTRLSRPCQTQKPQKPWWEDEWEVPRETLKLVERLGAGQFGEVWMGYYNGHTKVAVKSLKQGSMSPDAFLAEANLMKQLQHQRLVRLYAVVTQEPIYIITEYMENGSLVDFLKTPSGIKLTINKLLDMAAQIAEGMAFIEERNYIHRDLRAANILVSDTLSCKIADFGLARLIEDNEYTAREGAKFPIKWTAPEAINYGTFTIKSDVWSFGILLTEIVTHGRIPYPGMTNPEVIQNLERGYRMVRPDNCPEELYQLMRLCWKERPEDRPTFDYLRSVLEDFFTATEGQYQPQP

| IC50 [nM] | Structure (SMILES) |
| --- | --- |
| 2000 | CC[C@H](C)[C@H](NC(=O)[C@H](CCC(=O)O)NC(=O)[C@H](CCC(=O)O)NC(=O)[C@H](Cc1ccc(OP(=O)(O)O)cc1)NC(C)=O)C(=O)NC |
| 1600 | CC[C@H](C)[C@H](NC(=O)[C@H](CCC(=O)O)NC(=O)[C@H](CCC(=O)O)NC(=O)[C@H](Cc1ccc(OP(=O)(O)O)cc1)NC(C)=O)C(=O)N1CCC[C@@H]1C(=O)NC |
| 1600 | CC(=O)N[C@@H](Cc1ccc(OP(=O)(O)O)cc1)C(=O)N[C@H]1CCC(=O)N2CCC[C@@H](C(=O)NCC3CCCCC3)N2C1=O |
| 1200 | CC(=O)N[C@@H](Cc1ccc(OP(=O)(O)O)cc1)C(=O)N[C@H]1CCC(=O)N2CCC[C@@H](C(=O)NC3CCc4ccccc43)N2C1=O (stereo partly specified) |
| 1900 | CCCCNC(=O)[C@@H]1CCCN2C(=O)CC[C@H](NC(=O)[C@H](Cc3ccc(OP(=O)(O)O)cc3)NC(C)=O)C(=O)N12 |
| 1800 | CCCCCNC(=O)[C@@H]1CCCN2C(=O)CC[C@H](NC(=O)[C@H](Cc3ccc(OP(=O)(O)O)cc3)NC(C)=O)C(=O)N12 |
| 2800 | CC(=O)N[C@@H](Cc1ccc(OP(=O)(O)O)cc1)C(=O)N[C@H]1CCC(=O)N2CCC[C@@H](C(=O)N[C@H]3C[C@@H](C(=O)O)c4ccccc43)N2C1=O |
| 2000 | CC(=O)N[C@@H](Cc1ccc(OP(=O)(O)O)cc1)C(=O)N[C@H]1CCC(=O)N2CCC[C@@H](C(=O)N[C@H]3C[C@H](C(=O)O)c4ccccc43)N2C1=O |
| 1900 | CC(=O)N[C@@H](Cc1ccc(OP(=O)(O)O)cc1)C(=O)N[C@H]1CCC(=O)N2CCC[C@@H](C(=O)NCc3cccc4ccccc34)N2C1=O |
| 400 | CC(=O)N[C@@H](Cc1ccc(OP(=O)(O)O)cc1)C(=O)N[C@H]1CCC(=O)N2CCC[C@@H](C(=O)NCc3ccc(Cl)cc3)N2C1=O |
| 1600 | CC[C@H](C)[C@H](NC(=O)[C@@H]1CCCN2C(=O)CC[C@H](NC(=O)[C@H](Cc3ccc(OP(=O)(O)O)cc3)NC(C)=O)C(=O)N12)C(=O)NC |
| 10000 | CC(=O)N[C@@H](Cc1ccc(OP(=O)(O)O)cc1)C(=O)N[C@H]1CCC(=O)N2CCC[C@@H](C(=O)NCc3ccc(O)cc3)N2C1=O |
| 1100 | CC(=O)N[C@@H](Cc1ccc(OP(=O)(O)O)cc1)C(=O)N[C@H]1CCC(=O)N2CCC[C@@H](C(=O)Nc3cccc4ccccc34)N2C1=O |
| 30 | CC(=O)N[C@@H](Cc1ccc(OP(=O)(O)O)cc1)C(=O)N[C@H]1CCC(=O)N2CCC[C@@H](C(=O)N[C@@H]3C[C@H](C(=O)O)c4ccccc43)N2C1=O |
| 1800 | CC(=O)N[C@@H](Cc1ccc(OP(=O)(O)O)cc1)C(=O)N[C@H]1CCC(=O)N2CCC[C@@H](C(=O)NCC(C)(C)C)N2C1=O |
| 1500 | CC(=O)N[C@@H](Cc1ccc(OP(=O)(O)O)cc1)C(=O)N[C@H]1CCC(=O)N2CCC[C@@H](C(=O)NCc3ccccc3)N2C1=O |
| 6000 | CCCNC(=O)[C@@H]1CCCN2C(=O)CC[C@H](NC(=O)[C@H](Cc3ccc(OP(=O)(O)O)cc3)NC(C)=O)C(=O)N12 |
| 100 | CC(=O)N[C@@H](Cc1ccc(OP(=O)(O)O)cc1)C(=O)N[C@H]1CCC(=O)N2CCC[C@@H](C(=O)N[C@@H]3C[C@@H](C(=O)O)c4ccccc43)N2C1=O |
| 1200 | CC[C@@H](C)CNC(=O)[C@@H]1CCCN2C(=O)CC[C@H](NC(=O)[C@H](Cc3ccc(OP(=O)(O)O)cc3)NC(C)=O)C(=O)N12 |
| 1100 | CC(=O)N[C@@H](Cc1ccc(OP(=O)(O)O)cc1)C(=O)N[C@H]1CCC(=O)N2CCC[C@@H](C(=O)NCC34CC5CC(CC(C5)C3)C4)N2C1=O |
| 8500 | CCNC(=O)[C@@H]1CCCN2C(=O)CC[C@H](NC(=O)[C@H](Cc3ccc(OP(=O)(O)O)cc3)NC(C)=O)C(=O)N12 |
| 17000 | CNC(=O)[C@H](CCC(=O)O)NC(=O)[C@H](CCC(=O)O)NC(=O)[C@H](Cc1ccc(OP(=O)(O)O)cc1)NC(C)=O (Ac-[pY]-Glu-Glu-NHMe) |
| 350000 | CNC(=O)[C@H](CCC(=O)O)NC(=O)[C@H](Cc1ccc(OP(=O)(O)O)cc1)NC(C)=O (Ac-[pY]-Glu-NHMe) |
| 360 | CC[C@H](C)[C@H](NC(=O)[C@@H]1CCCN1C(=O)[C@@H](NC(=O)[C@H](CCC(=O)O)NC(=O)[C@H](CCC(=O)O)NC(=O)[C@H](Cc1ccc(OP(=O)(O)O)cc1)NC(=O)[C@H](CCC(N)=O)NC(=O)[C@@H]1CCCN1C(=O)[C@@H](N)CCC(=O)O)[C@@H](C)CC)C(=O)N[C@@H](Cc1ccc(O)cc1)C(=O)N[C@@H](CC(C)C)C(=O)O (H-EPQ[pY]EEIPIYL-OH) |
| 7700 | CC(=O)N[C@@H](Cc1ccc(OP(=O)(O)O)cc1)C(=O)N[C@H]1CCC(=O)N2CCC[C@@H](C(=O)NC3CC(C(=O)O)c4ccccc43)N2C1=O (stereo in doubt; 34) |
| 7300 | CC(=O)N[C@@H](Cc1ccc(OP(=O)(O)O)cc1)C(=O)N[C@H]1CCC(=O)N2CCC[C@@H](C(=O)NC3CC(C(=O)O)c4ccccc43)N2C1=O (stereo in doubt; 35) |
